In patent publication US20250136592A1, “C-LINKED INHIBITORS OF ENL/AF9 YEATS” (Bridge Medicines, priority 2021, published 2025):
Where two headings read alike, the source gives them in different places.

Assays:
ENL YEATS domain = ENL YEATS domain (Homo sapiens (Human), UniProt Q03111); assay: TR-FRET ENL Screening Assay; settings: 6xHIS ENL YEATS domain binding to H3K9cr peptide
Protocol: Compounds of the invention were tested in a TR-FRET ENL Screening Assay. TR-FRET (time-resolved fluorescence energy transfer) can be used to quantify ENL YEATS domain binding to a crotonylated histone peptide (H3K9cr, aa1-20). Streptavidin-Europium (Eu) chelate binds the biotinylated peptide, while Anti-6×HIS ULight™ binds 6×HIS-ENL. When Eu chelate is excited at 320 nm, fluorescence resonance energy transfer (FRET) occurs if Eu and ULight are made proximal by ENL binding to the acyl-peptide.
Low control (LC) wells received 5 μL of assay buffer instead of ENL protein. […] The response at each compound concentration minus the LC value was converted to percent inhibition of the vehicle control group response (HC-LC).

[1] = system: MV4:11 (MLL-AF4 MLL) cells; assay: Cell viability assay (CellTiter-Glo), 12 days; assay type: cell-based; settings: MV4;11 cells, 12 day, read-out: CTG_MV4, 11 12 DAY_EC50
Protocol: The assays were conducted over 12 days and the cells being split on days 4 and 8. […] Blank wells received cell culture medium. Plates were incubated for 4 days at 37° C. with 5% CO2. On days 4 and day 8 the cells were split and incubated for a further 4 days whilst an aliquot of cells were taken for the CTG readout. For the cell splitting, 270 nL of compounds or DMSO was added to a new 96 well cell culture plate to which 90 μL of medium plus 10 μL of cells from the original assay plate (after mixing) or 100 μL of medium (Blank wells) was added. This was repeated on day 8.
Cell viability was assessed using the CellTiter-Glo® homogeneous luminescent assay kit (Promega, G9243), according to the manufacturer's instructions. This quantifies ATP, which indicates the presence of metabolically active cells. […] The resulting data were analyzed as follows:
where vehicle are cells treated with 0.3% DMSO, Blank is culture medium. IC50 determinations were calculated by fitting the curve using XLfit (v5.3.1.3): Y=Bottom+(Top−Bottom)/(1+10^((LogIC50−X)*HillSlope)).

ENL YEATS domain, sequence (Q03111 1-138): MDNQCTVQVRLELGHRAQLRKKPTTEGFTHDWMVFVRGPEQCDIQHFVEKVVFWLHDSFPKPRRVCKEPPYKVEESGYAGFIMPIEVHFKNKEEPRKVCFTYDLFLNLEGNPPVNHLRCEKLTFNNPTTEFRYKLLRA

Structure (SMILES) | IC50 (ENL YEATS domain) [nM] | EC50 ([1]; Homo sapiens, 288 h) [nM] | EC50 [1] [nM]
Cc1nccc2ccc(C(=O)Nc3cc4[nH]c([C@H]5CCCCN5C)cc4cn3)cc12 [Example 88] | 47 | 69 | –
CN1CCC[C@@H]1c1cc2cnc(NC(=O)c3ccc4c(c3)ncn4C)cc2[nH]1 [Example 59] | 53 | 15800 | –
CN1CCC[C@@H]1c1cc2cnc(NC(=O)c3ccc4c(C(F)F)nn(C)c4c3)cc2[nH]1 [Example 78, (R)-3-(difluoromethyl)-1-methyl-N-(2-(1-methylpyrrolidin-2-yl)-1H-pyrrolo[3,2-c]pyridin-6-yl)-1H-indazole-6-carboxamide] | 14 | 167 | –
Cc1nccc2cc(C(=O)Nc3cc4[nH]c([C@H]5CCCN5C)cc4cn3)ccc12 [Example 65] | 18 | 54 | –
CN1CCC[C@@H]1c1cc2cnc(NC(=O)c3ccn4c(C(F)(F)F)ncc4c3)cc2[nH]1 [Example 35] | 114 | 269 | –
Cc1ccc2cc(C(=O)Nc3ccc4cc([C@H]5CCCN5C)[nH]c4c3)c(F)cc2n1 [Example 76] | 136 | – | 723
Cc1nc2ccc(C(=O)Nc3cc4[nH]c([C@H]5CCCN5C)cc4cn3)cc2o1 [Example 56] | 131 | 4780 | –
COc1c(C(=O)Nc2cc3[nH]c([C@H]4CCCN4C)cc3cn2)ccc2c(C)n[nH]c12 [Example 54] | 318 | 621 | –
CN1CCC[C@@H]1c1nc2cc(NC(=O)c3ccc4c(c3)[nH]c(=O)n4C)ccc2[nH]1 [Example 26] | 145 | 374 | –
CN1CCC[C@@H]1c1cc2cnc(NC(=O)c3ccc4cnn(C)c4c3)cc2[nH]1 [Example 38] | 94 | 87 | –
